The values below come from patent EP2769738B1, “Conjugated TLR7 and/or TLR8 and TLR2 polycationic agonists” (Invivogen, priority 2013, dated 2014).

Values joined by “and” are separate entries in the source; they are usually repeats but may differ in a detail not shown here. Equal entries are not always repeated.

The data set is described as follows: Determination of nanoparticle (lipoplex) size by dynamic light scattering. It counts as physicochemical. As to conditions: ratio 3:24 (w:w); for Conformity (C)/ Non-conformity (NC) / Mean Diameter (nm): complexes with pDNA; for Mean Diameter (nm): dynamic light scattering at 25°C; for Mean Diameter (nm) / PDI: triplicate measurements; for PDI: polydispersity index of complexes with pDNA, 25°C. The protocol:
• 1. Preparative HPLC Method: Unless otherwise indicated, the compounds described herein were purified by RP-MPLC ARMEN® Spot Flash Liquid Chromatography (ARMEN Instrument, Saint Ave, France) on a preparative column (SVF D26) packed with 25-40 µm C18 resin (Merck chimie SAS), by applying a linear gradient of 0-10% MeCN in NH4OAc (10 mM) solution (pH = 9) over 60 min at a 15 mL/min flow rate. The purification was monitored at 254 nm. Suitable fractions were pooled and lyophilised. • 2. Proton NMR Spectra: Unless otherwise indicated, all ^1H NMR spectra were run on a Bruker series 300 MHz instrument. Where so characterized, all observed protons are reported as parts-per-million (ppm) downfield from tetramethylsilane (TMS) or other internal reference in the appropriate solvent indicated. NMR spectra were recorded on a Brucker 300 spectrometer. For ^1H (300 MHz) spectra δ values were referenced to CDCI3-d1 (7.26 ppm), DMSO- d6 (2.50 ppm), D2O-d2 (4.79 ppm) or MeOD-d4 (3.31 ppm). The peak patterns are indicated as follows: s: singlet, sl: large singlet, d: doublet, t: triplet, q: quartet, m: multiplet. • 3. Mass Spectra (MS): Analyses were run on an Agilent Model 6130 quadrupole MS. Unless otherwise indicated, all mass spectral data for starting materials, intermediates and/or exemplary compounds are reported as mass/charge (m/z), having an (M+H)^+ molecular ion. The molecular ion reported was obtained by electrospray detection method (commonly referred to as an ESI MS). Compounds having an isotopic atom, such as bromine and the like, are generally reported according to the detected isotopic pattern, as appreciated by those skilled in the art. • 4. Particle size: Particle size was determined using a Malvern Nanosizer (Malvern, Worcestershire, UK) and Malvern ZETASIZER.RTM. (Malvern, Worcestershire, UK). • 5. Naming Convention The compounds disclosed and described herein have been named using the naming convention provided with Chem-Draw Ultra 11.0 software, available in Chem. Office. In some instances, compounds were named with the term "spermine" inserted where appropriate. For example, where the spermine is substituted with Boc, "N1,N5,N10-TriBoc-spermine" is added to the Chem-Draw nomenclature in the appropriate place. Chem-Draw utilizes the ISIS Draw software compound naming convention, as appreciated by those skilled in the art.
For pDNA:TLR7-TLR2 polyamine molecules complexes, a ratio pDNA:TLR7-TLR2 polyamine molecules of 3:24 (w:w) was prepared in serum-free culture medium or in 5% glucose. The TLR7-TLR2 conjugated compound of interest was prediluted in serum-free culture medium or in 5% glucose and incubated for 5 minutes at room temperature, prior to the addition of an endotoxin-free, salt-free preparation of pDNA. In these experiments, the pBsr2pCpGLacZh plasmid was used in the pDNA:TLR7-TLR2 polyamine molecule complexes. The pDNA:TLR7-TLR2 polyamine molecule mixtures were incubated at room temperature for 30 minutes to allow the formation of the complex. The control used in these experiments was the cationic lipid transfection agent LyoVec™ (InvivoGen) prepared in a similar manner.
In order to confirm that TLR7-TLR2 polyamine molecules complex DNA, lipoplex size was determined. The physical characterization of complex was achieved by dynamic light scattering using the analytical equipment for laser diffraction Zetasizer Nano-ZS (Malvern). pDNA:TLR7-TLR2 polyamine molecule complexes were prepared as described above. Subsequently, 50µl of pDNA: TLR7-TLR2 polyamine molecule complexes were placed into a disposable sizing cuvette and measurements were made under conditions defined according to manufacturer's instructions. The measurements were made at 25°C in triplicate and a size distribution report was obtained. […]

On to `CCCCCCCCCCCCCCCC(=O)OCC(CSC[C@H](N)C(=O)N[C@@H](CO)C(=O)N[C@@H](CCCCN)C(=O)N[C@@H](CCCCN)C(=O)N[C@@H](CCCCNC(=O)c1ccc(Cn2c(O)nc3c(N)nc(NCCCC)nc32)cc1)C(=O)N[C@@H](CCCCN)C(=O)O)OC(=O)CCCCCCCCCCCCCCC` (stereo partly drawn) [CL530, (2S,5S,8S,11S,14S,17R)-17-amino-5-(4-(4-((6-amino-2-(butylamino)-8-hydroxy-9H-purin-9-yl)methyl)benzamido)butyl)-2,8,11-tris(4-aminobutyl)-14-(hydroxymethyl) -4,7,10,13,16,24-hexaoxo-21-(palmitoyloxy)-23-oxa-19-thia-3,6,9,12,15-pentaaza nonatriacontan-1-oic acid], for which the “Conformity (C)/ Non-conformity (NC)” value is given as “NC (larger sizes were considered to show aggregates or non-conformity)”; the “Mean Diameter (nm)” value was 188,0 nm and 187,6 nm and 213,1 nm; the PDI was 0,332 and 0,351 and 0,315.

Take `CCCCCCCCCCCCCCCC(=O)OCC(CSC[C@H](N)C(=O)N[C@@H](CO)C(=O)N[C@@H](CCCCN)C(=O)N[C@@H](CCCCNC(=O)c1ccc(Cn2c(O)nc3c(N)nc(NCCCC)nc32)cc1)C(=O)N[C@@H](CCCCN)C(=O)N[C@@H](CCCCN)C(=O)O)OC(=O)CCCCCCCCCCCCCCC` (stereo partly drawn) [CL531, (2S,5S,8S,11S,14S,17R)-17-amino-8-(4-(4-((6-amino-2-(butylamino)-8-hydroxy-9H-purin-9-yl)methyl)benzamido)butyl)-2,5,11-tris(4-aminobutyl)-14-(hydroxymethyl) -4,7,10,13,16,24-hexaoxo-21-(palmitoyloxy)-23-oxa-19-thia-3,6,9,12,15-pentaaza nonatriacontan-1-oic acid]: the “Conformity (C)/ Non-conformity (NC)” value was “C (ranged between 140 and 200 nm in diameter were considered to show conformity)”; the “Mean Diameter (nm)” value is 145,0 nm and 143,8 nm and 140,1 nm; the PDI was 0,144 and 0,153 and 0,138.

On to `CCCCCCCCCCCCCCCC(=O)OCC(CSC[C@H](N)C(=O)N[C@@H](CO)C(=O)N[C@@H](CCCCNC(=O)c1ccc(Cn2c(O)nc3c(N)nc(NCCCC)nc32)cc1)C(=O)N[C@@H](CCCCN)C(=O)N[C@@H](CCCCN)C(=O)N[C@@H](CCCCN)C(=O)O)OC(=O)CCCCCCCCCCCCCCC` (stereo partly drawn) [CL533, (2S,5S,8S,11S,14S,17R)-17-amino-11-(4-(4-((6-amino-2-(butylamino)-8-hydroxy-9H-purin-9-yl)methyl)benzamido)butyl)-2,5,8-tris(4-aminobutyl)-14-(hydroxylmethyl)-4,7,10,13,16,24-hexaoxo-21-(palmitoyloxy)-23-oxa-19-thia-3,6,9,12,15-pentaazanonatria contan-1-oic acid], for which the “Conformity (C)/ Non-conformity (NC)” value was “C (ranged between 140 and 200 nm in diameter were considered to show conformity)”; the “Mean Diameter (nm)” value was 140,4 nm and 149,8 nm and 141,5 nm; the PDI is 0,195 and 0,198 and 0,185.

Regarding `CCCCCCCCCCCCCCCC(=O)N[C@@H](CSCC(COC(=O)CCCCCCCCCCCCCCC)OC(=O)CCCCCCCCCCCCCCC)C(=O)N[C@@H](CO)C(=O)N[C@@H](CCCCN)C(=O)N[C@@H](CCCCN)C(=O)N[C@@H](CCCCNC(=O)c1ccc(Cn2c(O)nc3c(N)nc(NCCCC)nc32)cc1)C(=O)N[C@@H](CCCCN)C(=O)O` (stereo partly drawn) [CL535, (2S,5S,8S,11S,14S,17R)-5-(4-(4-((6-amino-2-(butylamino)-8-hydroxy-9H-purin-9-yl)methyl)benzamido)butyl)-2,8,11-tris(4-aminobutyl)-14-(hydroxymethyl)-4,7,10, 13,16,24-hexaoxo-17-palmitamido-21-(palmitoyloxy)-23-oxa-19-thia-3,6,9,12,15-pentaazanonatriacontan-1-oic acid], the “Conformity (C)/ Non-conformity (NC)” value is recorded as “NC (larger sizes were considered to show aggregates or non-conformity)”; the “Mean Diameter (nm)” value is 229,5 nm and 232,3 nm and 226,8 nm; the PDI was 0,351 and 0,336 and 0,396.
